Paper PMC5785958, “New role of phenothiazine derivatives as peripherally acting CB1 receptor antagonizing anti-obesity agents” (Scientific Reports, 2018)

What was measured:
[1] = tested on: Wistar rats; assay: Acute hypophagic response in 24 h food-deprived rats; format: in vivo, rat; conditions: for effect on food intake (in words): 2 h
Method: As a preliminary screening, the synthesized compounds were evaluated for acute hypophagia in rats and the results are summarized in Fig. 5. Twenty four hour food deprived Wistar rats were given weighed amounts of food pellets after administration of the test compounds. Quantum of food consumed by the control group of animals was considered as 100%.
Male Wistar rats weighing 200–250 g were used in the present study to assess the acute hypophagic response. Animals were housed individually in a plexi-glass cage in a temperature and humidity controlled room with a 12 h light/dark cycle. Standard chow pellets and water were made available ad libitum. Animals were handled daily for a week before performing the actual experiments. The animal study protocol was approved by the Institutional Animal Ethics Committee (IAEC) of Faculty of Pharmacy, The Maharaja Sayajirao University of Baroda (Approval no. MSU/IAEC/2014-15/1401). The experiments were conducted in accordance to the guidelines of CPCSEA (Committee for the Purpose of Control and Supervision of Experiments on Animals), Ministry of Environment & Forests, Govt. of India. We tried our best to reduce the number of animals and their suffering.
The acute effect of the synthesized test compounds on feeding behavior was assessed in 24 h food-deprived animals. Before performing the experiments, the bedding material was removed from the cage. The animals were deprived of feed for 24 h with free access to water. The fasted animals were administered with the test compounds (10 mg/kg, p.o.). After 30 min of administration, weighed amounts of food pellets were served to the animals. Amount of food pellets and food spillage remaining after 2 h were weighed to find out the amount of food consumed by the animals.

[2] = PAMPA-BBB in vitro permeability assay; format: in vitro ADME, porcine; parameters: key to Prediction (penetration in CNS): CNS- indicates low passive CNS permeation; conditions: for Prediction (penetration in CNS): from PAMPA-BBB Pe, Pe less than 3.8 × 10^−6 cm s^−1 = low BBB permeation; for Papp at 120 min, 100 µg/ml: pig, PAMPA-BBB, porcine brain lipid, PBS/ethanol (70:30), 25 °C, mean ± SEM of three experiments, read-out: Pe
Method: As discussed above, BBB permeation of the available CB1 receptor antagonists limits their therapeutic utility. A successful CB1 receptor antagonist to be used as anti-obesity agent must be devoid of BBB permeability. […] In this study, the ability of the test compounds to cross the BBB was determined by the well established in vitro model PAMPA-BBB assay. This simple and rapid model has the advantage to predict passive BBB permeation with high accuracy[57],[58]. The in vitro permeability (Pe) of the test compounds through the lipid extract of porcine brain was determined in PBS/ethanol (70:30).
To assess the in vivo brain permeability potential of the test compounds, PAMPA assay for BBB was performed as reported by Di. et al.[57]. The donor microplate (polyvinylidene fluoride (PVDF) membrane, diameter 25 mm, pore size 0.45 µm Millipore) and the acceptor microplate were used for the experiment. The acceptor microplate was filled with 200 µl phosphate buffer saline (PBS) and ethanol in the ratio of 70:30 whereas the donor microplate filter surface was impregnated with porcine brain lipid (Avanti Polar Lipids) in dodecane (Sigma) (4 µl of 20 mg/ml). 200 µl of the test compound (100 µg/ml in PBS/ethanol) was added to the donor well. A sandwich was formed by placing the donor plate carefully on the acceptor plate, and the plates were kept undisturbed for 120 min at 25 °C. The donor plate was carefully detached after the incubation period and concentration of the test compound in the acceptor wells was determined using UV spectroscopy. Each sample was analyzed in four wells at five different wavelengths, and at least in three independent runs. Assay validation was performed by using nine commercial quality standard drugs of known BBB permeability[75] in which the reported permeability values of the standards were compared with their experimental permeability values, which gave a linear relationship, Pe(exp.) = 1.171Pe(bibl.) + 1.489 (R^2 = 0.983)[57],[58].

[3] = 24 h fasted male Wistar rats, 10 mg/kg p.o.
[4] = 24 h fasted male Wistar rats, 10 mg/kg p.o., food served after 30 min, intake over 2 h

SMILES	Prediction (penetration in CNS) [2]	Papp at 120 min, 100 µg/ml [2] [nm/s]	melting point [°C]	effect on food intake (in words) [1, 3]	food intake (control = 100%) ([1]; 24 h fasted male Wistar rats, 10 mg/kg p.o., food served after 30 min, intake over 2 h, 10 mg/kg)	food intake (control = 100%) ([1]; po, 10 mg/kg) [%]	food intake (control = 100%) [1, 4]
N#Cc1cnc(SCC(=O)N2c3ccccc3Sc3ccc(C(F)(F)F)cc32)nc1N [Compound 5, 4-Amino-2-(2-(2-trifluoromethyl-10H-phenothiazin-10-yl)-2-oxoethylthio)pyrimidine-5-carbonitrile]	CNS-	27.8 ± 1.4	218 to 220	weak short acting hypophagic activity	62–74%	62	
N#Cc1cnc(SCC(=O)N2c3ccccc3Sc3ccc(Cl)cc32)nc1N [Compound 22, 4-Amino-2-(2-(2-chloro-10H-phenothiazin-10-yl)-2-oxoethylthio)pyrimidine-5-carbonitrile]	CNS-	22.8 ± 1.1	222 to 224				62–74%
N#Cc1cnc(SCC(=O)N2c3ccccc3Sc3ccccc32)nc1N [Compound 24, 4-Amino-2-(2-oxo-2-(10H-phenothiazin-10-yl)ethylthio)pyrimidine-5-carbonitrile]			241 to 243				
CCOC(=O)c1cnc(SCC(=O)N2c3ccccc3Sc3ccc(Cl)cc32)nc1N [Compound 26, Ethyl 4-amino-2-(2-(2-chloro-10H-phenothiazin-10-yl)-2-oxoethylthio)pyrimidine-5-carboxylate]	CNS-	36.6 ± 6.7	156 to 158				62–74%
CCOC(=O)c1cnc(SCC(=O)N2c3ccccc3Sc3ccccc32)nc1N [Compound 28, Ethyl 4-amino-2-(2-oxo-2-(10H-phenothiazin-10-yl)ethylthio)pyrimidine-5-carboxylate]			202 to 204				
O=C(CSc1nnc(-c2ccncc2)o1)N1c2ccccc2Sc2ccc(C(F)(F)F)cc21 [Compound 29, 2-(5-(4-Pyridyl)-1,3,4-oxadiazol-2-ylthio)-1-(2-trifluoromethyl-10H-phenothiazin-10-yl)ethanone]			156 to 158				
COc1ccc2c(c1)N(C(=O)CSc1nnc(-c3ccncc3)o1)c1ccccc1S2 [Compound 31, 1-(2-Methoxy-10H-phenothiazin-10-yl)-2-(5-(4-pyridyl)-1,3,4-oxadiazol-2-ylthio)-ethanone]			166 to 168				
O=C(CSc1nnc(-c2ccncc2)o1)N1c2ccccc2Sc2ccccc21 [Compound 32, 1-(10H-Phenothiazin-10-yl)-2-(5-(4-pyridyl)-1,3,4-oxadiazol-2-ylthio)ethanone]	CNS-	32.2 ± 6.3	212 to 214	no effect on food intake			80–99%
Nn1c(SCC(=O)N2c3ccccc3Sc3ccc(C(F)(F)F)cc32)nnc1-c1ccncc1 [Compound 33, 2-(4-Amino-5-(4-pyridyl)-4H-1,2,4-triazol-3-ylthio)-1-(2-(trifluoromethyl)-10H-phenothiazin-10-yl)ethanone]	CNS-	10.5 ± 2.2	202 to 204	did not impact the food intake			80–99%
COc1ccc2c(c1)N(C(=O)CSc1nnc(-c3ccncc3)n1N)c1ccccc1S2 [Compound 35, 2-(4-Amino-5-(4-pyridyl)-4H-1,2,4-triazol-3-ylthio)-1-(2-methoxy-10H-phenothiazin-10-yl)ethanone]			188 to 190				
N#Cc1cnc(SCCCN2c3ccccc3Sc3ccc(Cl)cc32)nc1N [Compound 43, 4-Amino-2-(3-(2-chloro-10H-phenothiazin-10-yl)propylthio)pyrimidine-5-carbonitrile]	CNS-	34.7 ± 6.6	138 to 140				62–74%
N#Cc1cnc(SCCCN2c3ccccc3Sc3ccccc32)nc1N [Compound 45, 4-Amino-2-(3-(10H-phenothiazin-10-yl)propylthio)pyrimidine-5-carbonitrile]			117 to 119				
CCOC(=O)c1cnc(SCCCN2c3ccccc3Sc3ccc(C(F)(F)F)cc32)nc1N [Compound 46, Ethyl 4-amino-2-(3-(2-trifluoromethyl-10H-phenothiazin-10-yl)propylthio)pyrimidine-5-carboxylate]	CNS-	28.4 ± 2.8	118 to 120				62–74%

Further lines, with some results ahead:

Prediction (penetration in CNS) [2]	Papp at 120 min, 100 µg/ml [2] [nm/s]	melting point [°C]	SMILES	effect on food intake (in words) [1, 3]	food intake (control = 100%) ([1]; 24 h fasted male Wistar rats, 10 mg/kg p.o., food served after 30 min, intake over 2 h, 10 mg/kg)	food intake (control = 100%) ([1]; po, 10 mg/kg) [%]	food intake (control = 100%) [1, 4]
		194 to 196	O=C(CSc1nnc(-c2ccncc2)o1)N1c2ccccc2Sc2ccc(Cl)cc21 [Compound 30, 1-(2-Chloro-10H-phenothiazin-10-yl)-2-(5-(4-pyridyl)-1,3,4-oxadiazol-2-ylthio)ethanone]				
		232 to 234	Nn1c(SCC(=O)N2c3ccccc3Sc3ccccc32)nnc1-c1ccncc1 [Compound 36, 2-(4-Amino-5-(4-pyridyl)-4H-1,2,4-triazol-3-ylthio)-1-(10H-phenothiazin-10-yl)ethanone]				
CNS-	26 ± 1.8	164 to 166	N#Cc1cnc(SCCCN2c3ccccc3Sc3ccc(C(F)(F)F)cc32)nc1N [Compound 42, 4-Amino-2-(3-(2-trifluoromethyl-10H-phenothiazin-10-yl)propylthio)pyrimidine-5-carbonitrile]	no effect on the food intake			80–99%
CNS-	35.8 ± 7.3	158 to 160	COc1ccc2c(c1)N(CCCSc1ncc(C#N)c(N)n1)c1ccccc1S2 [Compound 44, 4-Amino-2-(3-(2-methoxy-10H-phenothiazin-10-yl)propylthio)pyrimidine-5-carbonitrile]				62–74%
CNS-	32.8 ± 3.8	120 to 122	CCOC(=O)c1cnc(SCCCN2c3ccccc3Sc3ccc(Cl)cc32)nc1N [Compound 47, Ethyl 4-amino-2-(3-(2-chloro-10H-phenothiazin-10-yl)propylthio)pyrimidine-5-carboxylate]				62–74%
		106 to 108	CCOC(=O)c1cnc(SCCCN2c3ccccc3Sc3ccc(OC)cc32)nc1N [Compound 48, Ethyl 4-amino-2-(3-(2-methoxy-10H-phenothiazin-10-yl)propylthio)pyrimidine-5-carboxylate]				
		146 to 148	CCOC(=O)c1cnc(SCCCN2c3ccccc3Sc3ccccc32)nc1N [Compound 49, Ethyl 4-amino-2-(3-(10H-phenothiazin-10-yl)propylthio)pyrimidine-5-carboxylate]				
